Tested on: cancer cell lines
Test: Multiplexed cytotoxicity assay: cell proliferation (relative cell count IC50, GI50)
Type: cell-based
Conditions: Homo sapiens
Description: (§1) Cells are grown in RPMI1640, 10% FBS, 2 mM L-alanyl-L-Glutamine, 1 mM Na pyruvate or a special medium in a humidified atmosphere of 5% CO2 at 37° C. Cells are seeded into 384-well plates and incubated in a humidified atmosphere of 5% CO2 at 37° C. Compounds are added 24 h post cell seeding. At the same time, a time zero untreated cell plate is generated. After a 72 hour incubation period, cells are fixed and stained with fluorescently labeled antibodies and nuclear dye to allow visualization of nuclei, apoptotic cells and mitotic cells. Apoptotic cells are detected using an anti-active caspase-3 antibody. Mitotic cells are detected using an anti phospho-histone-3 antibody. Compounds are serially diluted 3.16-fold and assayed over 10 concentrations in a final assay concentration of 0.1% DMSO from the highest test concentration of 10 μM. Automated fluorescence microscopy was carried out using a Molecular Devices ImageXpress Micro XL high-content imager, and images are collected with a 4× objective.
(§2) Sixteen-bit TIFF images are acquired and analyzed with MetaXpress 5.1.0.41 software. Cell proliferation is measured by the signal intensity of the incorporated nuclear dye. The cell proliferation assay output is referred to as the relative cell count. To determine the cell proliferation end point, the cell proliferation data output is transformed to percentage of control (POC) using the following formula: POC=relative cell count(compound wells)/relative cell count(vehicle wells)×100
(§3) GI50 is the concentration needed to reduce the observed growth by half. This is the concentration that inhibits the growth to the level midway between growth in untreated cells and the number of cells seeded in the well (Time zero value). The IC50 values are calculated using nonlinear regression to fit data to a sigmoidal 4 point, 4 parameter One-Site dose response model, where: y(fit)=A+[(B−A)/(1+((C/x)^D))].
as §1, with “In another experiment, cells were grown” for “Cells are grown”, “Cells were” for “Cells are”, “Compounds were” for “Compounds are”, “plate was” for “plate is”, “cells were” for “cells are”, “images were” for “images are”
as §2, with “images were” for “images are”, “proliferation was” for “proliferation is”, “output was” for “output is”
as §3, with “GI50 refers to” for “GI50 is”, “This corresponds to” for “This is”, “values were” for “values are”

[1] = BV-173, BV173 (Hematopoietic and lymphoid, Leukemia)
[2] = BXPC-3, 72 h, BXPC3, Pancreas, 72 h
[3] = BeWo, 72 h, Female GU, Placenta
[4] = C-4-II, C4II (Female GU, Cervix)
[5] = C-33-A, C33A (Female GU, Cervix)
[6] = CA46, CA46 (Hematopoietic and lymphoid, Lymphoma)
[7] = CAL-62, 72 h, CAL62, Endocrine, Thyroid, 72 h
[8] = CAPAN-1, 72 h, CAPAN1, Pancreas, 72 h
[9] = CCF-STTG1, CCFSTTG1 (CNS, Glioma)
[10] = CCRF-CEM, CCRFCEM (Hematopoietic and lymphoid, Leukemia)
[11] = CFPAC-1, 72 h, CFPAC1, Pancreas, 72 h
[12] = CGTH-W-1, 72 h, CGTHW1, Endocrine, Thyroid, 72 h
[13] = CHP-212, 72 h, CHP212, CNS, Neuroblastoma, 72 h
[14] = COLO-320-HSR, COLO320HSR (Colon)
[15] = COLO-829, COLO829 (Skin, Melanoma)
[16] = COR-L23, 72 h, CORL23, Lung, NSCLC, 72 h
[17] = COR-L105, 72 h, CORL105, Lung, NSCLC, 72 h
[18] = CRO-AP2, CROAP2 (Hematopoietic and lymphoid, Lymphoma)
[19] = Ca-Ski, 72 h, CASKI, Female GU, Ovary
[20] = Calu-1, 72 h, CALU1, Lung, NSCLC, 72 h
[21] = Calu-6, 72 h, CALU6, Lung, NSCLC, 72 h
[22] = Caov-3, 72 h, CAOV3, Female GU, Ovary, 72 h
[23] = Capan-2, 72 h, CAPAN2, Pancreas, 72 h
[24] = ChaGo-K-1, 72 h, CHAGOK1, Lung, NSCLC, 72 h
[25] = D283 Med, D283MED (CNS, Medulloblastoma)
[26] = DBTRG-05MG, DBTRG05MG (CNS, Glioma)

C[C@]1(C(N)=O)CC[C@@H](n2c(Nc3c(Cl)cc(Cl)cc3Cl)nc3cnc(N[C@@H]4CCOC[C@H]4F)nc32)CC1 [Compound 1, cis-4-[2-{[(3S,4R)-3-fluorooxan-4-yl]amino}-8-(2,4,6-trichloroanilino)-9H-purin-9-yl]-1-methylcyclohexane-1-carboxamide]
GI50 (BT-474, BT474 (Breast)): > 10000 nM | IC50 (BT-474, BT474 (Breast)): > 10000 nM | GI50 (BT-549, BT549 (Breast)): > 10000 nM | IC50 (BT-549, BT549 (Breast)): > 10000 nM | GI50 [1]: 1100 nM | IC50 [1]: > 10000 nM | GI50 [2]: 36.9 nM | IC50 [2]: 45.5 nM | GI50 [3]: 5160 nM | IC50 [3]: 5690 nM | GI50 [4]: > 10000 nM | IC50 [4]: > 10000 nM | GI50 [5]: 191 nM | IC50 [5]: 407 nM | GI50 [6]: 14.6 nM | IC50 [6]: 21.3 nM | GI50 (CAKI-1, CAKI1 (Kidney)): 91.4 nM | IC50 (CAKI-1, CAKI1 (Kidney)): 151 nM | GI50 (CAKI-2, CAKI2 (Kidney)): 139 nM | IC50 (CAKI-2, CAKI2 (Kidney)): 193 nM | GI50 (CAL-27, CAL27 (Head and Neck)): 59.2 nM | IC50 (CAL-27, CAL27 (Head and Neck)): 66.1 nM | GI50 [7]: 83.6 nM | IC50 [7]: 93.6 nM | GI50 (CAMA-1, CAMA1 (Breast)): 298 nM | IC50 (CAMA-1, CAMA1 (Breast)): 2240 nM | GI50 [8]: 105 nM | IC50 [8]: > 10000 nM | GI50 [9]: > 10000 nM | IC50 [9]: > 10000 nM | GI50 [10]: 5030 nM | IC50 [10]: 6050 nM | GI50 [11]: > 10000 nM | IC50 [11]: > 10000 nM | GI50 [12]: 54.7 nM | IC50 [12]: 60.5 nM | GI50 (CHL-1, CHL1 (Skin, Melanoma)): 103 nM | IC50 (CHL-1, CHL1 (Skin, Melanoma)): 117 nM | GI50 [13]: 6.6 nM | IC50 [13]: 16.5 nM | GI50 (COLO 201, COLO201 (Colon)): 12.8 nM | IC50 (COLO 201, COLO201 (Colon)): 17.2 nM | GI50 (COLO 205, COLO205 (Colon)): 9.5 nM | IC50 (COLO 205, COLO205 (Colon)): 11.7 nM | GI50 (COLO 320DM, COLO320DM (Colon)): 9110 nM | IC50 (COLO 320DM, COLO320DM (Colon)): > 10000 nM | GI50 [14]: 4190 nM | IC50 [14]: 4440 nM | GI50 [15]: 12.1 nM | IC50 [15]: 34.3 nM | GI50 [16]: 23.8 nM | IC50 [16]: 28.3 nM | GI50 [17]: 16.5 nM | IC50 [17]: 41.4 nM | GI50 [18]: 996 nM | IC50 [18]: 2580 nM | GI50 [19]: 6760 nM | IC50 [19]: > 10000 nM | GI50 [20]: 96.7 nM | IC50 [20]: 149 nM | GI50 [21]: 46.3 nM | IC50 [21]: 83 nM | GI50 [22]: 429 nM | IC50 [22]: > 10000 nM | GI50 [23]: 136 nM | IC50 [23]: 291 nM | GI50 [24]: > 10000 nM | IC50 [24]: > 10000 nM | GI50 [25]: 2560 nM | IC50 [25]: 7550 nM | GI50 [26]: 43.2 nM | IC50 [26]: 98.4 nM | GI50 (DLD-1, DLD1 (Colon)): 162 nM | IC50 (DLD-1, DLD1 (Colon)): 197 nM | GI50 (DMS-53, 72 h, DMS53, Lung, SCLC, 72 h): 998 nM

— US10513519B2, “Solid forms of (1S,4S)-4-(2-(((3S,4R)-3-fluorotetrahydro-2H-pyran-4-yl)amino)-8-((2,4,6-trichlorophenyl)amino)-9H-purin-9-yl)-1-methylcyclohexane-1-carboxamide and methods of their use” (Signal Pharmaceuticals, LLC, priority 2016, dated 2019)
